Reference: PubChem BioAssay (NCI)
Where “and” joins values, the source holds several entries; their conditions need not be identical. Equal entries are not always repeated.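 Following 48 hours of exposure in 96-well plates, responses at five concentrations were used to interpolate endpoints linearly. GI50: concentration for 50% inhibition of growth. At the TGI there is no net growth.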

Tests used:
Assay in all cases: growth of human tumour cells (NCI), 48 h
UO-31 renal = test system: UO-31 renal
COLO 205 colon = test system: COLO 205 colon
SK-MEL-28 melanoma = test system: SK-MEL-28 melanoma
LOX IMVI melanoma = test system: LOX IMVI melanoma
SNB-75 CNS = test system: SNB-75 CNS
OVCAR-4 ovarian = test system: OVCAR-4 ovarian
SF-268 CNS = test system: SF-268 CNS
HCT-116 colon = test system: HCT-116 colon
ACHN renal = test system: ACHN renal
HS 578T breast = test system: HS 578T breast
MDA-MB-435 = test system: MDA-MB-435
CCRF-CEM leukemia = test system: CCRF-CEM leukemia
T-47D breast = test system: T-47D breast
PC-3 prostate = test system: PC-3 prostate

| Structure (SMILES) | GI50 (UO-31 renal) | TGI (UO-31 renal) | GI50 (COLO 205 colon) | TGI (COLO 205 colon) | GI50 (SK-MEL-28 melanoma) | TGI (SK-MEL-28 melanoma) | GI50 (LOX IMVI melanoma) | TGI (LOX IMVI melanoma) | GI50 (SNB-75 CNS) | TGI (SNB-75 CNS) | GI50 (OVCAR-4 ovarian) | TGI (OVCAR-4 ovarian) | TGI (SF-268 CNS) | TGI (HCT-116 colon) | TGI (ACHN renal) | TGI (HS 578T breast) | TGI (MDA-MB-435) | TGI (CCRF-CEM leukemia) | TGI (T-47D breast) | TGI (PC-3 prostate) |
| --- | --- | --- | --- | --- | --- | --- | --- | --- | --- | --- | --- | --- | --- | --- | --- | --- | --- | --- | --- | --- |
| N#C[S-].[La+3].c1ccc(-c2ccccn2)nc1.c1ccc(-c2ccccn2)nc1.c1ccc(-c2ccccn2)nc1 | 10.8 µM | 55.9 µM | 45.5 µM | > 100000 nM | 30.9 µM | > 100 µM | 7.3 µM | 68.3 µM | 25.9 µM | > 100 µM | 20.4 µM | > 100 µM | – | – | – | – | – | – | – | – |
| O=c1cc(-c2cccc(OC(F)(F)F)c2)[nH]c2ccc(N3CCCC3)cc12 | – | > 100 µM | – | 20.4 nM and 31.9 nM | – | – | – | – | – | – | – | – | 19.1 µM | 177 nM and 1760 nM | 51.3 µM | 86.2 µM | < 0.0001 µM | > 100000 nM | > 100 µM | – |
| Clc1cc(N/N=C(\c2ccccc2)c2ccccn2)ncn1 | – | – | – | – | – | > 100 µM | – | 1.74 µM | – | > 100 µM | – | > 100 µM | > 100 µM | > 100000 nM | > 100 µM | > 100 µM | > 100 µM | 1300 nM | 45.2 µM | > 100 µM |
